Results as given in patent US5567692A, “9-[(substituted glycyl) amido)]-6-demethyl-6-deoxytetracyclines” (priority 1995, dated 1996).
Converted amounts (≈) assume the structure as drawn. Where a name gives a salt, the structure may show the parent alone. Read-outs that look alike come from different tables or passages of the source.

What was measured:
Type in all cases: cell-based
S. aureus ATCC 29213 = assay: MIC, agar dilution; details: Staphylococcus aureus, ATCC29213, 18 h, S. aureus ATCC 29213
E. coli UBMS 89-1 Tet M = assay: microbe, parasite or virus in culture; details: Escherichia coli, UBMS891TETM, 18 h
S. aureus IVES 2943 = assay: MIC, agar dilution; details: Staphylococcus aureus, IVES2943, 18 h, S. aureus IVES 2943; read-out: MIC
[1] = test system: S. aureus UBMS 88-5 Tet M; assay: microbe, parasite or virus in culture; details: Staphylococcus aureus, UBMS885TETM, 18 h
[2] = test system: Ps. aeruginosa ATCC 27853; assay: MIC, agar dilution; details: Pseudomonas aeruginosa, ATCC27853, 18 h, Ps. aeruginosa ATCC 27853; read-out: MIC
E. coli UBMS 90-5 = assay: microbe, parasite or virus in culture; details: Escherichia coli, UBMS905, 18 h, E. coli UBMS 90-5; read-out: MIC
E. faecalis ATCC 29212 = assay: MIC, agar dilution; details: Enterococcus faecalis, ATCC29212, 18 h, E. faecalis ATCC 29212; read-out: MIC
[3] = test system: S. aureus UBMS 90-2 Tet M; assay: microbe, parasite or virus in culture; details: Staphylococcus aureus, UBMS902TETM, 18 h
E. coli ATCC 25922 = assay: MIC, agar dilution; details: Escherichia coli, ATCC25922, 18 h
E. coli BAJ9003 IMP MUT = assay: microbe, parasite or virus in culture; details: Escherichia coli, BAJ9003IMPMUT, 18 h
S. aureus NEMC 8769 = assay: MIC, agar dilution; details: Staphylococcus aureus, NEMC8769, 18 h
[4] = test system: S. aureus UBMS 90-1 Tet M; assay: microbe, parasite or virus in culture; details: Staphylococcus aureus, UBMS901TETM, 18 h
[5] = test system: S. aureus UBMS 88-7 Tet K; assay: microbe, parasite or virus in culture; details: Staphylococcus aureus, UBMS887TETK, 18 h
E. coli J2175 = assay: MIC, agar dilution; details: Escherichia coli, 18 h, read-out: MIC
E. coli #311 (MP) = assay: MIC, agar dilution; details: Escherichia coli, 18 h
Enterococcus 12201 = assay: MIC, agar dilution; details: Enterococcus, 12201, 18 h
S. aureus SMITH (MP) = assay: MIC, agar dilution; details: Staphylococcus aureus, 18 h
E. coli UBMS 88-1 Tet B = assay: microbe, parasite or virus in culture; details: Escherichia coli, UBMS881TETB, 18 h
S. aureus UBMS 88-4 = assay: MIC, agar dilution; details: Staphylococcus aureus, UBMS884, 18 h
[6] = test system: E. coli MC 4100 TNIOC Tet B; assay: microbe, parasite or virus in culture; details: Escherichia coli, 18 h
S. aureus UBMS 90-3 = assay: MIC, agar dilution; details: Staphylococcus aureus, UBMS903, 18 h
E. coli J3272 Tet C = assay: microbe, parasite or virus in culture; details: Escherichia coli, J3272TETC, 18 h
[7] = test system: E. coli UBMS 89-2 Tet sens.; assay: MIC, agar dilution; details: Escherichia coli, 18 h
[8] = test system: S. hemolyticus AVHAH 88-3; assay: MIC, agar dilution; details: Streptococcus pyogenes, AVHAH883, 18 h
S. aureus IVES 1983 = assay: MIC, agar dilution; details: Staphylococcus aureus, IVES1983, 18 h
E. coli PRP1 Tet A = assay: microbe, parasite or virus in culture; details: Escherichia coli, PRP1TETA, 18 h
S. marcescens FPOR 8733 = assay: MIC, agar dilution; details: Serratia marcescens, FPOR8733, 18 h
E. coli UBMS 90-4 Tet M = assay: microbe, parasite or virus in culture; details: Escherichia coli, UBMS904TETM, 18 h
[9] = test system: X. maltophilia NEMC 87210; assay: MIC, agar dilution; details: Stenotrophomonas maltophilia, NEMC87210, 18 h
[10] = test system: E. coli MC 4100 Tet sens.; assay: MIC, agar dilution; details: Escherichia coli, 18 h
S. aureus ROSE (MP) = assay: MIC, agar dilution; details: Staphylococcus aureus, 18 h
E. coli J3272 Tet D = assay: microbe, parasite or virus in culture; details: Escherichia coli, J3272TETD, 18 h

| Structure (SMILES) | MIC (E. coli UBMS 89-1 Tet M) | MIC (S. aureus IVES 2943) | MIC [1] | MIC [2] | MIC (E. coli UBMS 90-5) | MIC (E. faecalis ATCC 29212) | MIC [3] | MIC (E. coli ATCC 25922) | MIC (E. coli BAJ9003 IMP MUT) | MIC [4] | MIC [5] | MIC (E. coli J2175) | MIC (E. coli #311 (MP)) | MIC (S. aureus SMITH (MP)) | MIC (E. coli UBMS 88-1 Tet B) | MIC (S. aureus UBMS 88-4) | MIC [6] | MIC (E. coli J3272 Tet C) | MIC [7] | MIC [8] | also measured |
| --- | --- | --- | --- | --- | --- | --- | --- | --- | --- | --- | --- | --- | --- | --- | --- | --- | --- | --- | --- | --- | --- |
| CC(C(=O)Nc1ccc2c(c1O)C(=O)C1=C(O)[C@]3(O)C(=O)C(C(N)=O)=C(O)[C@@H](N(C)C)C3CC1C2)N(C)C (stereo partly drawn) [B, [4S-(4alpha,12aalpha)]-4-(Dimethylamino)-9-[[2-(dimethylamino)-1-oxopropyl]amino]-1,4,4a,5,5a,6,11,12a-octahydro-3,10,12,12a-tetrahydroxy-1,11-dioxo-2-naphthacenecarboxamide dihydrochloride] | 0.5 µg/mL | 1 µg/mL | 0.5 µg/mL | 32 µg/mL | 0.5 µg/mL | 0.25 µg/mL | 0.25 µg/mL | 0.5 µg/mL | 0.25 µg/mL | 0.5 µg/mL | 1 µg/mL | 1 µg/mL | 0.5 µg/mL | 0.25 µg/mL | 1 µg/mL | 0.25 µg/mL | 0.5 µg/mL | 1 µg/mL | 1 µg/mL | 1 µg/mL | MIC (S. aureus ATCC 29213; read-out: MIC): 0.25 µg/mL; MIC (S. aureus NEMC 8769; read-out: MIC): 0.06 µg/mL; MIC (Enterococcus 12201): 0.25 µg/mL; MIC (S. aureus UBMS 90-3; S. aureus UBMS 90-3, read-out: MIC): 0.06 µg/mL; MIC (S. aureus IVES 1983; S. aureus IVES 1983, read-out: MIC): 1 µg/mL; MIC (E. coli PRP1 Tet A): 2 µg/mL; MIC (S. marcescens FPOR 8733): 8 µg/mL; MIC (E. coli UBMS 90-4 Tet M): 0.5 µg/mL; MIC [9]: 2 µg/mL; MIC [10]: 0.25 µg/mL; MIC (S. aureus ROSE (MP)): 4 µg/mL; MIC (E. coli J3272 Tet D): 0.5 µg/mL |
| CC(C(=O)Nc1ccc2c(c1O)C(=O)C1=C(O)[C@]3(O)C(=O)C(C(N)=O)=C(O)[C@@H](N(C)C)C3CC1C2)N1CCCC1 (stereo partly shown) [P] | 0.5 µg/mL (≈ 0.902 µM) | 2 µg/mL (≈ 3.61 µM) | 0.5 µg/mL (≈ 0.902 µM) | > 32 µg/mL | 0.5 µg/mL (≈ 0.902 µM) | 0.25 µg/mL (≈ 0.451 µM) | 0.5 µg/mL (≈ 0.902 µM) | 1 µg/mL (≈ 1.8 µM) | 0.25 µg/mL (≈ 0.451 µM) | 0.5 µg/mL (≈ 0.902 µM) | 1 µg/mL (≈ 1.8 µM) | 1 µg/mL (≈ 1.8 µM) | 1 µg/mL (≈ 1.8 µM) | 0.5 µg/mL (≈ 0.902 µM) | 2 µg/mL (≈ 3.61 µM) | 0.5 µg/mL (≈ 0.902 µM) | 2 µg/mL (≈ 3.61 µM) | 1 µg/mL (≈ 1.8 µM) | 1 µg/mL (≈ 1.8 µM) | 4 µg/mL (≈ 7.21 µM) | MIC (S. aureus ATCC 29213): 0.5 µg/mL (≈ 0.902 µM); MIC (S. aureus NEMC 8769): 0.5 µg/mL (≈ 0.902 µM); MIC (Enterococcus 12201; Enterococcus 12201, read-out: MIC): 0.25 µg/mL (≈ 0.451 µM); MIC (S. aureus UBMS 90-3): 0.25 µg/mL (≈ 0.451 µM); MIC (S. aureus IVES 1983): 1 µg/mL (≈ 1.8 µM); MIC (E. coli PRP1 Tet A): 2 µg/mL (≈ 3.61 µM); MIC (S. marcescens FPOR 8733): 16 µg/mL (≈ 28.8 µM); MIC (E. coli UBMS 90-4 Tet M): 1 µg/mL (≈ 1.8 µM); MIC [9]: 4 µg/mL (≈ 7.21 µM); MIC [10]: 0.25 µg/mL (≈ 0.451 µM); MIC (S. aureus ROSE (MP); read-out: MIC): 8 µg/mL (≈ 14.4 µM); MIC (E. coli J3272 Tet D): 0.5 µg/mL (≈ 0.902 µM) |
